Assays:
Experiment in all cases: scanMAX kinase assay panel
Type in all cases: binding
Conditions in all cases: read-out: control percentage (% control)
MEK1 = target: T1, MEK1 (Homo sapiens, UniProt Q02750)
T1 construct: purchased DiscoverX scanMAX kinase assay panel
Procedure: (§1) The activities of the compounds according to the present invention to more diverse enzymes were evaluated. Specifically, it was decided that the enzyme selectivity of Example 74 selected from the compounds of Examples 1 to 129 was measured at the request of DiscoverX, and the experiment was conducted using a scanMAX™ kinase assay panel. At this time, as a drug to treat the enzyme, a solution prepared by dissolving in DMSO at a concentration of 1 μM was used, and the control percentage (% control) was determined by the method of Equation 1 below, and the results were shown in Table 2 below.
(§2) In Equation above, the positive control and negative control mean compounds showing control percentages of 0% and 100% as DMSO, respectively.

RIOK3 = target: T2, RIOK3 (Homo sapiens, UniProt O14730)
T2 construct: purchased DiscoverX scanMAX kinase assay panel
Procedure: as §1, §2

MARK4 = target: T3, MARK4 (Homo sapiens, UniProt Q96L34)
T3 construct: purchased DiscoverX scanMAX kinase assay panel
T3 sequence (Q96L34 whole entry): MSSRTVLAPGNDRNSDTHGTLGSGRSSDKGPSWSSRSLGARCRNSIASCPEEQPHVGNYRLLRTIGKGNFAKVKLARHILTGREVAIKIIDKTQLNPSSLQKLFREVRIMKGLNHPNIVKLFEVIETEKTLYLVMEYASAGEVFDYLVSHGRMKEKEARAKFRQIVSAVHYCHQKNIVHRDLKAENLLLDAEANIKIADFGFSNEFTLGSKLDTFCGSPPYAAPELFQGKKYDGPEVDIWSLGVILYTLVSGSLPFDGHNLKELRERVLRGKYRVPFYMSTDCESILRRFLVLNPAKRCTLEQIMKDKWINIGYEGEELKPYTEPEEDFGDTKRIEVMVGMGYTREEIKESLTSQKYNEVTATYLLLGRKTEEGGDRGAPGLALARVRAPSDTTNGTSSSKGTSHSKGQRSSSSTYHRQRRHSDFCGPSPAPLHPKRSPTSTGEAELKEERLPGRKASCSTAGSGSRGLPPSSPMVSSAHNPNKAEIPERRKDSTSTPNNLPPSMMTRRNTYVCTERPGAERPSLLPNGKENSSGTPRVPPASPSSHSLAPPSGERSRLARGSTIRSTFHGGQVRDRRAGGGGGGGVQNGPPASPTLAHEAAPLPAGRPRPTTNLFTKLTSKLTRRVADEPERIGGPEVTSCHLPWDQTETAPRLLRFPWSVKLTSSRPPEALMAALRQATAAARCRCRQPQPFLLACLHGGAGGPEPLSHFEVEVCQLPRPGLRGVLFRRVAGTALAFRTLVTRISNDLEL
Procedure: as §1, §2

[1] = target: T4, ABL1(T315I)-nonphosphorylated (Homo sapiens, UniProt P00519, T315I)
T4 construct: purchased DiscoverX (scanMAX panel, contract assay)
Procedure: as §1, §2

CDK7 = target: T5, CDK7 (Homo sapiens, UniProt P50613)
T5 construct: purchased DiscoverX (scanMAX panel, contract assay)
Procedure: as §1, §2

EGFR(L858R) = target: T6, EGFR(L858R) (Homo sapiens, UniProt P00533, L858R)
T6 construct: purchased DiscoverX scanMAX kinase assay panel
Procedure: as §1, §2

SNARK = target: T7, SNARK (Homo sapiens, UniProt Q9H093)
T7 construct: purchased DiscoverX
T7 sequence (Q9H093 whole entry): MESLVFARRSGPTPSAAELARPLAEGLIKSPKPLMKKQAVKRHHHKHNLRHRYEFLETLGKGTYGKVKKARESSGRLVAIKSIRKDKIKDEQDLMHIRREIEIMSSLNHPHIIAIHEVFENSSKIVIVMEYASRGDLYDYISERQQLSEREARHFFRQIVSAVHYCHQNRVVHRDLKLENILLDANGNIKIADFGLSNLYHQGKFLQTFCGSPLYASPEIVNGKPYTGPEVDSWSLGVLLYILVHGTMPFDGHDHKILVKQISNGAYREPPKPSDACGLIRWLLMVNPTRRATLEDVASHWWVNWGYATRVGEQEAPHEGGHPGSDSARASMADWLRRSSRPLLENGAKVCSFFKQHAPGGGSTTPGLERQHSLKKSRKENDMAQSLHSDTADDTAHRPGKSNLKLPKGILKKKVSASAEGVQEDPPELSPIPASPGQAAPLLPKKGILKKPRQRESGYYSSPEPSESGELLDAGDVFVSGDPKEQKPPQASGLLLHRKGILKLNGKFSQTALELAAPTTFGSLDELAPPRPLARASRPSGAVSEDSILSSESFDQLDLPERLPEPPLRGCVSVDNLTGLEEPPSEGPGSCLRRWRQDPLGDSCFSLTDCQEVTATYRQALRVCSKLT
Procedure: as §1, §2

CDK4 = target: T8, CDK4 (Homo sapiens, UniProt P11802)
T8 construct: purchased DiscoverX (scanMAX panel, contract assay)
Procedure: as §1, §2

SYK = target: T9, SYK (Homo sapiens, UniProt P43405)
T9 construct: purchased DiscoverX
Procedure: as §1, §2

FLT3(N841I) = target: T10, FLT3(N841I) (Homo sapiens, UniProt P36888, N841I)
T10 construct: purchased DiscoverX scanMAX kinase assay panel
Procedure: as §1, §2

CSNK1G2 = target: T11, CSNK1G2 (Homo sapiens, UniProt P78368)
T11 construct: purchased DiscoverX (scanMAX panel, contract assay)
Procedure: as §1, §2

MET = target: T12, MET (Homo sapiens, UniProt P08581)
T12 construct: purchased DiscoverX scanMAX kinase assay panel
Procedure: as §1, §2

DCAMKL3 = target: T13, DCAMKL3 (Homo sapiens, UniProt Q9C098)
T13 construct: purchased DiscoverX (scanMAX panel, contract assay)
Procedure: as §1, §2

DLK = target: T14, DLK (Homo sapiens, UniProt Q12852)
T14 construct: purchased DiscoverX scanMAX kinase assay panel
T14 sequence (Q12852 whole entry): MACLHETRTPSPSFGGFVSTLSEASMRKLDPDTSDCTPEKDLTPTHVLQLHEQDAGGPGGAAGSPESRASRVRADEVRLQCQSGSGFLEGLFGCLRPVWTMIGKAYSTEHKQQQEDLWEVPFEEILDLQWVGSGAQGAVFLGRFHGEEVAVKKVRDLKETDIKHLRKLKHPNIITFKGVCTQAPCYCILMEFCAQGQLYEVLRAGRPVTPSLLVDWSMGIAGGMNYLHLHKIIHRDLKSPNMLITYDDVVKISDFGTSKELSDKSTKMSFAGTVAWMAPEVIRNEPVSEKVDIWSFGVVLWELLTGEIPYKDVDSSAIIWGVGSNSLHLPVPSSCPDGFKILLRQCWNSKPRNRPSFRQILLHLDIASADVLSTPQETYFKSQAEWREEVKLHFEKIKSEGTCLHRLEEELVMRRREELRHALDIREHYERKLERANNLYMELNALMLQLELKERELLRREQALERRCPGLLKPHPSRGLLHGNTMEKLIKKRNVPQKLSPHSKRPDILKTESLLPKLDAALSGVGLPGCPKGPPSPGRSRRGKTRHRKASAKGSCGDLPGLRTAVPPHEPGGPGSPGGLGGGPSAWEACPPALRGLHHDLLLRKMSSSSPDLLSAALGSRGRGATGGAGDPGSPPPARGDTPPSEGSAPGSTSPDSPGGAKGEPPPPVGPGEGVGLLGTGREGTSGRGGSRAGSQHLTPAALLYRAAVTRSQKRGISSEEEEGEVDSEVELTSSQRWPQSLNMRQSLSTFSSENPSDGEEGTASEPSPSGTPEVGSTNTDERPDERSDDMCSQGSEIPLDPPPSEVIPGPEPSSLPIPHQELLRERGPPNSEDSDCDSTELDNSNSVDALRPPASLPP
Procedure: as §1, §2

ROCK1 = target: T15, ROCK1 (Homo sapiens, UniProt Q13464)
T15 construct: purchased DiscoverX scanMAX kinase assay panel
Procedure: as §1, §2

PIP5K2B = target: T16, PIP5K2B (Homo sapiens, UniProt P78356)
T16 construct: purchased DiscoverX scanMAX kinase assay panel
Procedure: as §1, §2

MEK2 = target: T17, MEK2 (Homo sapiens, UniProt P36507)
T17 construct: purchased DiscoverX scanMAX kinase assay panel
Procedure: as §1, §2

ULK2 = target: T18, ULK2 (Homo sapiens, UniProt Q8IYT8)
T18 construct: purchased DiscoverX
Procedure: as §1, §2

FES = target: T19, FES (Homo sapiens, UniProt P07332)
T19 construct: purchased DiscoverX scanMAX kinase assay panel
Procedure: as §1, §2

ALK = target: T20, ALK (Homo sapiens, UniProt Q9UM73)
T20 construct: purchased DiscoverX (scanMAX panel, contract assay)
Procedure: as §1, §2

MST3 = target: T21, MST3 (Homo sapiens, UniProt Q9Y6E0)
T21 construct: purchased DiscoverX scanMAX kinase assay panel
Procedure: as §1, §2

IRAK3 = target: T22, IRAK3 (Homo sapiens, UniProt Q9Y616)
T22 construct: purchased DiscoverX scanMAX kinase assay panel
Procedure: as §1, §2

MEK5 = target: T23, MEK5 (Homo sapiens, UniProt Q13163)
T23 construct: purchased DiscoverX scanMAX kinase assay panel
Procedure: as §1, §2

TRKC = target: T24, TRKC (Homo sapiens, UniProt Q16288)
T24 construct: purchased DiscoverX
Procedure: as §1, §2

MAP4K2 = target: T25, MAP4K2 (Homo sapiens, UniProt Q12851)
T25 construct: purchased DiscoverX scanMAX kinase assay panel
T25 sequence (Q12851 whole entry): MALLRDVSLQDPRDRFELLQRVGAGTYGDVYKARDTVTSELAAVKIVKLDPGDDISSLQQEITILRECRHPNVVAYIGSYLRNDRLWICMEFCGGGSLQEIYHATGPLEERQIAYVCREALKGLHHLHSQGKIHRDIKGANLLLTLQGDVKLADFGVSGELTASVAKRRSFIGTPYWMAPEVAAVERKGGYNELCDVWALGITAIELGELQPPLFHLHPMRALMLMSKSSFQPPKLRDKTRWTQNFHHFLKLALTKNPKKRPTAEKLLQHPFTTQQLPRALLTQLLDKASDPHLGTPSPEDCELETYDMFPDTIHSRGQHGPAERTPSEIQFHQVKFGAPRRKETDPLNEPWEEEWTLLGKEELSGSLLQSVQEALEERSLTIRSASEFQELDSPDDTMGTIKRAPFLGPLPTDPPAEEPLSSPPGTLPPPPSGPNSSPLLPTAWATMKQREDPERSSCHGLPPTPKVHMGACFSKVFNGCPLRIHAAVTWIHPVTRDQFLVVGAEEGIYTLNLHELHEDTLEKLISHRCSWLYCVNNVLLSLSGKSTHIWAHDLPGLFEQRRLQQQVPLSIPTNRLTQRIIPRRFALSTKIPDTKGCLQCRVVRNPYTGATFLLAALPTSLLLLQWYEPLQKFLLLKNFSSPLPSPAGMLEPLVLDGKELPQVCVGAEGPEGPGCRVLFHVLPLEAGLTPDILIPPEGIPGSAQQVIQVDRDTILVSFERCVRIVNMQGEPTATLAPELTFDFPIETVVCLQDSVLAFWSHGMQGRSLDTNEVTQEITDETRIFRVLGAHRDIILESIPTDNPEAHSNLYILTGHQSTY
Procedure: as §1, §2

JNK3 = target: T26, JNK3 (Homo sapiens, UniProt P53779)
T26 construct: purchased DiscoverX scanMAX kinase assay panel
T26 sequence (P53779 whole entry): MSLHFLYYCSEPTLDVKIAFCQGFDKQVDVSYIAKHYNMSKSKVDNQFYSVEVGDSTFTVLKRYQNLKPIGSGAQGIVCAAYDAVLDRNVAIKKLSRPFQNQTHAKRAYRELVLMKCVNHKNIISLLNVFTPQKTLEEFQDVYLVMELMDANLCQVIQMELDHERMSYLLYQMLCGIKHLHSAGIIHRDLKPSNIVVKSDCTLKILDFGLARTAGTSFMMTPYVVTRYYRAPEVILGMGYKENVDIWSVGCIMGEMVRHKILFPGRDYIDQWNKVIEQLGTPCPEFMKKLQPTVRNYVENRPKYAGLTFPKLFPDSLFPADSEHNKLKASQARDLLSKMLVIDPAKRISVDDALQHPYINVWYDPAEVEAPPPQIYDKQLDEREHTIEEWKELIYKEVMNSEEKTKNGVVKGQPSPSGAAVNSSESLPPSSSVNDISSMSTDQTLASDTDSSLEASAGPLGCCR
Procedure: as §1, §2

TRKA = target: T27, TRKA (Homo sapiens, UniProt P04629)
T27 construct: purchased DiscoverX
Procedure: as §1, §2

EGFR(L858R, T790M) = target: T28, EGFR(L858R, T790M) (Homo sapiens, UniProt P00533, L858R/T790M)
T28 construct: purchased DiscoverX scanMAX kinase assay panel
Procedure: as §1, §2

SRPK1 = target: T29, SRPK1 (Homo sapiens, UniProt Q96SB4)
T29 construct: purchased DiscoverX
Procedure: as §1, §2

RET(V804L) = target: T30, RET(V804L) (Homo sapiens, UniProt P07949, V804L)
T30 construct: purchased DiscoverX scanMAX kinase assay panel
Procedure: as §1, §2

EPHB4 = target: T31, EPHB4 (Homo sapiens, UniProt P54760)
T31 construct: purchased DiscoverX scanMAX kinase assay panel
Procedure: as §1, §2

[2] = target: T32, TYK2(JH1domain-catalytic) (Homo sapiens, UniProt P29597)
T32 construct: TYK2(JH1domain-catalytic); purchased DiscoverX
T32 sequence (P29597 897-1176 limits assumed): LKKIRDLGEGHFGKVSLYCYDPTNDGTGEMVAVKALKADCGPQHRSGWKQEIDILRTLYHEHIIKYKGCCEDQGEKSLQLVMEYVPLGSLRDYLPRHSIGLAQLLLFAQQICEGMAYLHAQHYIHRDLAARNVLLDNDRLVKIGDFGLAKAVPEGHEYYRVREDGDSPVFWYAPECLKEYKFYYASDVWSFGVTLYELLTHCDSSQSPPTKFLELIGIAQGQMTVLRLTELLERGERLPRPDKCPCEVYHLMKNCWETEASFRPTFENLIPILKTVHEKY
Procedure: as §1, §2

CIT = target: T33, CIT (Homo sapiens, UniProt O14578)
T33 construct: purchased DiscoverX (scanMAX panel, contract assay)
Procedure: as §1, §2

PYK2 = target: T34, PYK2 (Homo sapiens, UniProt Q14289)
T34 construct: purchased DiscoverX scanMAX kinase assay panel
Procedure: as §1, §2

PAK3 = target: T35, PAK3 (Homo sapiens, UniProt O75914)
T35 construct: purchased DiscoverX scanMAX kinase assay panel
Procedure: as §1, §2

BIKE = target: T36, BIKE (Homo sapiens, UniProt Q9NSY1)
T36 construct: purchased DiscoverX (scanMAX panel, contract assay)
T36 sequence (Q9NSY1 whole entry): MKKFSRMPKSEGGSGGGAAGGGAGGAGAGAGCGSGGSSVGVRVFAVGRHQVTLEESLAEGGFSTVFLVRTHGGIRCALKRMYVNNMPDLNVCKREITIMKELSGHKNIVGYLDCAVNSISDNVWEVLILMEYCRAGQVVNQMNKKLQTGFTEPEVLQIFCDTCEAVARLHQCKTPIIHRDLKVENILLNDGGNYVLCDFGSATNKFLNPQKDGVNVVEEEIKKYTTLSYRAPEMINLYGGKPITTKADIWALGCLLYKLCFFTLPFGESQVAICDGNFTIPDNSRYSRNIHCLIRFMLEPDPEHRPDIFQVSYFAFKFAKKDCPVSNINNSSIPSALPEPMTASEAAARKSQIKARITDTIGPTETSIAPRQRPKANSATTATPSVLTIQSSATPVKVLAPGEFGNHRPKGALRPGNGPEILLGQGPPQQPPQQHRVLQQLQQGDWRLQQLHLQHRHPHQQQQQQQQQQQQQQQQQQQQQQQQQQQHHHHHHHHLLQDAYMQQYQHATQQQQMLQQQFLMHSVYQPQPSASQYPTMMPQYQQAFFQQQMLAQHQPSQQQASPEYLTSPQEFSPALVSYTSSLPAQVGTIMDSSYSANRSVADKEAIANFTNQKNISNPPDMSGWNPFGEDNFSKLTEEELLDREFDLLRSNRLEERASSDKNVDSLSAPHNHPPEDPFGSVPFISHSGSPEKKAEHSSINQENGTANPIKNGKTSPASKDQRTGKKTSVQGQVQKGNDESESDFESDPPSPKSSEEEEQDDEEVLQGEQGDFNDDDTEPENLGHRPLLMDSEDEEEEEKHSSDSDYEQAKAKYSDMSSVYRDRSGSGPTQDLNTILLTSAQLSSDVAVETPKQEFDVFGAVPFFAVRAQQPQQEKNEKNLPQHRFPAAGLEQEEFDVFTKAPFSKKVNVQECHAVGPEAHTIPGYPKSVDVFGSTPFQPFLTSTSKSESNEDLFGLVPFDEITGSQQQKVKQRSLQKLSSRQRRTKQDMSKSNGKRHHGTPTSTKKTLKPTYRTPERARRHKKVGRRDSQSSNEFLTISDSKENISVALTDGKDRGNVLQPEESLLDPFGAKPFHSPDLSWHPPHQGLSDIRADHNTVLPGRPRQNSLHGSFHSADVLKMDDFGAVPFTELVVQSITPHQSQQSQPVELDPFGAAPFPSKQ
Procedure: as §1, §2

`CN1CCN(c2ccc(Nc3nc(N4OCC[C@H]4c4ccccc4)c4cc[nH]c4n3)cc2)CC1` [Example 74, (S)-N-(4-(4-methylpiperazin-1-yl)phenyl)-4-(3-phenylisoxazolidin-2-yl)-7H-pyrrolo[2,3-d]pyrimidin-2-amine] was tested, and the remaining binding at 1 µM (MEK1) was 16%, the remaining binding at 1 µM (RIOK3) was 3.6% and the remaining binding at 1 µM (MARK4) was 18%. For the same compound, the remaining binding at 1 µM [1] was 29%, the remaining binding at 1 µM (CDK7) was 21% and the remaining binding at 1 µM (EGFR(L858R)) was 20%. For the same compound, the remaining binding at 1 µM (SNARK) was 3.7%, the remaining binding at 1 µM (CDK4) was 10% and the remaining binding at 1 µM (SYK) was 32%. The remaining binding at 1 µM (FLT3(N841I)) was 0.3%, the remaining binding at 1 µM (CSNK1G2) was 21% and the remaining binding at 1 µM (MET) was 4.5%. For the same compound, the remaining binding at 1 µM (DCAMKL3) was 15%, the remaining binding at 1 µM (DLK) was 9.2% and the remaining binding at 1 µM (ROCK1) was 11%. For the same compound, the remaining binding at 1 µM (PIP5K2B) was 18%, the remaining binding at 1 µM (MEK2) was 17% and the remaining binding at 1 µM (ULK2) was 2.5%. For the same compound, the remaining binding at 1 µM (FES) was 32%, the remaining binding at 1 µM (ALK) was 31% and the remaining binding at 1 µM (MST3) was 32%. It also gave a remaining binding at 1 µM (IRAK3) of 24%, a remaining binding at 1 µM (MEK5) of 26% and a remaining binding at 1 µM (TRKC) of 21%. The remaining binding at 1 µM (MAP4K2) was 12%, the remaining binding at 1 µM (JNK3) was 4.5% and the remaining binding at 1 µM (TRKA) was 1.1%. The remaining binding at 1 µM (EGFR(L858R, T790M)) was 17%, the remaining binding at 1 µM (SRPK1) was 14% and the remaining binding at 1 µM (RET(V804L)) was 5.3%. It also gave a remaining binding at 1 µM (EPHB4) of 31%, a remaining binding at 1 µM [2] of 5.6% and a remaining binding at 1 µM (CIT) of 0.3%. For the same compound, the remaining binding at 1 µM (PYK2) was 27%, the remaining binding at 1 µM (PAK3) was 23% and the remaining binding at 1 µM (BIKE) was 1.8%.

From patent US20220242870A1, “HETEROCYCLE-FUSED PYRIMIDINE DERIVATIVE AND USE THEREOF” (VORONOI Inc., priority 2019, published 2022)
